Measurements as given in US20240124483A1, “Methods for the Treatment of Fibrotic Disease” (SHY Therapeutics, LLC, priority 2021, published 2024).

What was measured:
MAPK p38 = MAPK p38 Activation Assay in C2C12 (western blot); format: cell-based, mouse; design: key: Y = yes; N = No; settings: at 10 μM
Experimental: Cell lines: Human tumor-derived pancreatic cancer cell line Panc-1 and mouse muscle myoblast C2C12 were purchased from American Type Culture Collection and grown in complete DMEM-High Glucose, supplemented with penicillin (100 U/mL), streptomycin (100 μg/mL), and 10% heat-inactivated FBS at 37° C. in a humidified incubator with 5% CO2.
Method: Cells were plated at 350000 cells/well density in a 12-well plate, allowed 3 hours to adhere to the plate, then starved in the appropriate medium in the presence of 0.5% FBS overnight. The small molecules to be tested were added to the cells in the final concentration of 10 μM in the presence of 0.3% DMSO for 3 hours incubation at 37° C. For IC50 value determination, serial dilutions of compounds were added to cells under the same conditions. […] Protein concentration was assessed by BCA protein assay (Thermo Scientific). Phosphorylation level of MAPK p38 was determined by western blot.
Western blot protocol: Equal amounts of protein (15-50 μg) were separated by SDS-PAGE and transferred to nitrocellulose membranes (Invitrogen by Thermo Fisher Scientific). […] Membranes were blocked with 10% milk and phosphorylation levels of Smad2/Smad3 were assessed by incubating overnight at 4° C. with the following antibody: Phospho-p38 MAPK (Thr180/Tyr182), from Cell Signaling Technology. […]

Smad2 phosphorylation = assay: Phospho-Smad2 analysis of muscle tissue in the D2-mdx mouse model (western blot, densitometry); format: in vivo
Excerpt: (§1) The experiment described herein was designed to monitor the effects of Compound 9 on two biomarkers related to fibrosis in D2-mdx mice. The first biomarker is Smad2 phosphorylation, and the second is the levels of serum albumin in the different muscle tissues. Fibrosis causes disruption of the fine transparent tubular sheath which envelops the fibers of skeletal muscles, this can result in various molecules from the blood and interstitial fluid leaking into myofibres. A classic example is serum albumin, which can be identified in tissue sections and considered to be hallmark of myofibre permeability.
(§2) Experimental Design: Compound 9 was suspended in 0.5% Hydroxypropyl Methylcellulose (HPMC)/0.1% Tween® 80 to a final concentration of 10 mg/mL. The dosing solutions were prepared prior to the start of the test and were stored in the dark and maintained in frozen aliquots. Doses were thawed prior to administration. Male D2-mdx (JAX Stock No: 013141) mice were sourced from The Jackson Laboratory and housed in solid bottom cages with standard chow and water ad libitum. Dosing was initiated when animals were ˜3 weeks old. Animals were dosed daily by intraperitoneal (IP) injection at 100 mg/kg or vehicle for 3 days. […] Mice were sacrificed by CO2 euthanasia approximately 6 hours after their day 3 dosing. Heart, diaphragm, quadriceps, tibialis anterior (TA) samples were collected at termination on day 3 and snap frozen. These samples were shipped on dry ice for analysis, and were stored at −80° C.
(§3) Tissue protein extraction: Frozen tissues were placed on ice in prechilled tubes with 30 μL/mg with of ice-cold RIPA buffer+Halt™ Protease & Phosphatase Inhibitor Cocktail. Tissue was homogenized with a manual tissue homogenizer then centrifuged at 14,000 RPM at 4° C. for 15 min. Supernatant was removed and protein concentration determined by BCA assay.
(§4) Western blot protocol: Equal amounts of protein (15-50 μg) were separated by SDS-PAGE and transferred to nitrocellulose membranes (Invitrogen by Thermo Fisher Scientific). The membrane was stained with Ponceau S Stain (Boston BioProducts) to verify uniform protein loading. Membranes were blocked with 10% milk and albumin levels were assessed by incubating overnight at 4° C. with albumin antibody (Cell Signaling Technology #4929). Then the membranes were incubated with HRP-conjugated secondary antibody (Jackson Immunoresearch, West Grove, PA). Bands were incubated in Amersham ECL Prime Western Blotting Detection Reagent (GE Healthcare) and visualized using the ChemiDoc MP imaging system (Bio-Rad).
(§5) Western blot images for samples collected from heart (FIG. 2), diaphragm (FIG. 3), quadriceps (FIG. 4), and tibialis anterior (TA, FIG. 5) tissues following termination on day 3 were analyzed, providing the results summarized herein below (derived by densitometry).

[1] = system: serum albumin in muscle tissues; assay: Albumin analysis of muscle tissue in the D2-mdx mouse model (western blot, densitometry); format: in vivo
Excerpt: as §1, §2, §3, §4, §5

[2] = Observation for mortality and signs of pain or distress, D2-mdx mice; format: in vivo; settings: male D2-mdx mice, 100 mg/kg IP daily for 3 days
Experimental: as §2

[3] = D2-mdx mice, 100 mg/kg IP, 3 days
[4] = Ratio of Vehicle and Treated, 100 mg/kg IP, 3 days
[5] = Treated, 100 mg/kg IP daily for 3 days, D2-mdx mice, densitometry

## COCCNc1nc(-c2cn(C)cn2)nc2sc(-c3cccc(OC)c3Cl)c(-c3ccc(OC)cc3)c12 [Compound 8, 6-(2-Chloro-3-methoxyphenyl)-N-(2-methoxyethyl)-5-(4-methoxyphenyl)-2-(1-methyl-1H-imidazol-4-yl)thieno[2,3-d]pyrimidin-4-amine]
MAPK p38
  Activation of MAPK p38 in C2C12: Y

## COCCNc1nc(-c2nccn2C)nc2sc(-c3cccc(OC)c3Cl)c(-c3ccccc3)c12 [Compound 9, 6-(2-Chloro-3-methoxyphenyl)-N-(2-methoxyethyl)-2-(1-methyl-1H-imidazol-2-yl)-5-phenylthieno[2,3-d]pyrimidin-4-amine]
MAPK p38
  Activation of MAPK p38 in C2C12: Y
Smad2 phosphorylation; [3]
  Smad2 phosphorylation in the diaphragm compared to control vehicle mice: inhibition of Smad2 phosphorylation
  Smad2 phosphorylation in the heart: No changes were detected
Smad2 phosphorylation; [4]
  Phospho-Smad2, Diaphragm, Average, Ratio: 1.53
  Phospho-Smad2, Diaphragm, Median, Ratio: 1.54
  Phospho-Smad2, Quadriceps, Average, Ratio: 1.10
  Phospho-Smad2, Quadriceps, Median, Ratio: 0.64
Smad2 phosphorylation; [5]
  Phospho-Smad2, Diaphragm, Average: 0.18 ± 0.06
  Phospho-Smad2, Diaphragm, Median: 0.19
  Phospho-Smad2, Quadriceps, Average: 0.22 ± 0.11
  Phospho-Smad2, Quadriceps, Median: 0.28
[1]; [3]
  serum albumin levels in the heart: No changes were detected
  serum albumin levels in the tibialis anterior and quadricep muscles: clear decrease
[1]; [4]
  Albumin, Quadriceps, Average, Ratio: 1.25
  Albumin, Quadriceps, Median, Ratio: 1.21
  Albumin, Tibialis anterior, Average, Ratio: 1.18
  Albumin, Tibialis anterior, Median, Ratio: 1.26
[1]; [5]
  Albumin, Quadriceps, Average: 32650 ± 4998
  Albumin, Quadriceps, Median: 34329
  Albumin, Tibialis anterior, Average: 34522 ± 4321
  Albumin, Tibialis anterior, Median: 33494
[2]
  findings of overt toxicity: No findings of overt toxicity were observed
